# Results from ChEMBL document CHEMBL1255183, “Role of the phenolic hydroxyl group in the biological activities of simplified analogue of aplysiatoxin with antiproliferative activity” (Bioorg Med Chem Lett, 2010).
# Columns and labels:
# HT-29 = experiment: Cytotoxicity against human HT-29 cells; assay type: functional
# DMS-273 = experiment: Cytotoxicity against human DMS273 cells; assay type: functional
# Raji [1] = experiment: Inhibition of TPA-induced EBA-early antigen production in human Raji cells at 10^-7 M; assay type: cell-based; set-up: scale not given: the % may be the effect or the level left; settings: human gammaherpesvirus 4
# [2] = Cytotoxicity against human BSY1 cells; assay type: functional; settings: BSY-1
# MCF7 = experiment: Cytotoxicity against human MCF7 cells; assay type: functional
# [3] = target: Protein kinase C theta type (Homo sapiens, UniProt Q04759); experiment: Inhibition of [3H]PDBu binding to PKCtheta C1B peptide
# Protein kinase C theta type, sequence (Q04759 whole entry): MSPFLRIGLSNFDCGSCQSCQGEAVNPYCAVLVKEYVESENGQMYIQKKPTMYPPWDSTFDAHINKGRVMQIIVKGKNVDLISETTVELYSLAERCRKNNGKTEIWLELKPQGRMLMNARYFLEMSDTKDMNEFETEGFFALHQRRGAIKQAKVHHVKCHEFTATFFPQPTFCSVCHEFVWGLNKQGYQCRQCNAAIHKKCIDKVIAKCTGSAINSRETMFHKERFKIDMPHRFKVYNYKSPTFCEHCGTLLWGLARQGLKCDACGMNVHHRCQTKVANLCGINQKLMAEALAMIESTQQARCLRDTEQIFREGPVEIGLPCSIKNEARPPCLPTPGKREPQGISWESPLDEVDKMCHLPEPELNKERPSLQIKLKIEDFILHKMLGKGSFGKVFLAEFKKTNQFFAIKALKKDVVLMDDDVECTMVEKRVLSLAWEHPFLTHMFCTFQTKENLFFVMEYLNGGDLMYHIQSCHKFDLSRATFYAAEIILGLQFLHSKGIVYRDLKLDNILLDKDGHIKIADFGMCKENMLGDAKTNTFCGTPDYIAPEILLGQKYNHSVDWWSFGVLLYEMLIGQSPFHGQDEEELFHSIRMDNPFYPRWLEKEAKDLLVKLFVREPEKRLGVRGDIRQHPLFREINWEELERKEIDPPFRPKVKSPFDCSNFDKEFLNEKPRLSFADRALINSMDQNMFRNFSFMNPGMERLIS
# KM12 = experiment: Cytotoxicity against human KM12 cells; assay type: functional
# NCI-H460 = experiment: Cytotoxicity against human NCI-H460 cells; assay type: functional
# LOX IMVI = experiment: Cytotoxicity against human LOXIMVI cells; assay type: functional
# [4] = target: T1, Protein kinase C epsilon type (Homo sapiens, UniProt Q02156); experiment: Inhibition of [3H]PDBu binding to PKCepsilon C1B peptide
# T1 sequence (Q02156 whole entry): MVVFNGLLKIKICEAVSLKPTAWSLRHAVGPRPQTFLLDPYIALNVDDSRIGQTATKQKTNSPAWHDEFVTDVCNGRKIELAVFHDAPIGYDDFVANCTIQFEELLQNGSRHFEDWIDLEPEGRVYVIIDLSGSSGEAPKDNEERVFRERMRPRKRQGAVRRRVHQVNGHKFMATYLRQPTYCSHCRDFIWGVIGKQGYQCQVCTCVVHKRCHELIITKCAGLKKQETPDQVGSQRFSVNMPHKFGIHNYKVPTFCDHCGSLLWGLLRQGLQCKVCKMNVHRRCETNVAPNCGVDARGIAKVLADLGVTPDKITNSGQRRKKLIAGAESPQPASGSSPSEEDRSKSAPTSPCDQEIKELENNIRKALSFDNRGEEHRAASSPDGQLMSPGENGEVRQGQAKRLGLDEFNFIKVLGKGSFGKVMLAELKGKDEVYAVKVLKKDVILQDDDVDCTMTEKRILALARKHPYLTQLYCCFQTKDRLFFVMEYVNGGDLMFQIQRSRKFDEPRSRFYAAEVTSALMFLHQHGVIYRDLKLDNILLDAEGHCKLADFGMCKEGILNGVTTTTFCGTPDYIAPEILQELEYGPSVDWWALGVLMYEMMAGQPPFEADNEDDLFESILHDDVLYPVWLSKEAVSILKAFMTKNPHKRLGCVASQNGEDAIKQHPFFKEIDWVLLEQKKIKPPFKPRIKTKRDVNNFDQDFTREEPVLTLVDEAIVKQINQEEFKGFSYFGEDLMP
# SNB-75 = experiment: Cytotoxicity against human SNB75 cells; assay type: functional
# OVCAR-3 = experiment: Cytotoxicity against human OVCAR-3 cells; assay type: functional
# [5] = Cytotoxicity against human Raji cells assessed as viability at 10^-7 M in presence of TPA; assay type: cell-based; settings: read-out: Activity
# Raji [6] = experiment: Induction of EBA-early antigen production in human Raji cells at 10^-7 M; assay type: cell-based; settings: human gammaherpesvirus 4
# [7] = target: T2, Protein kinase C delta type (Homo sapiens, UniProt Q05655); experiment: Inhibition of [3H]PDBu binding to PKC delta C1B peptide
# T2 sequence (Q05655 whole entry): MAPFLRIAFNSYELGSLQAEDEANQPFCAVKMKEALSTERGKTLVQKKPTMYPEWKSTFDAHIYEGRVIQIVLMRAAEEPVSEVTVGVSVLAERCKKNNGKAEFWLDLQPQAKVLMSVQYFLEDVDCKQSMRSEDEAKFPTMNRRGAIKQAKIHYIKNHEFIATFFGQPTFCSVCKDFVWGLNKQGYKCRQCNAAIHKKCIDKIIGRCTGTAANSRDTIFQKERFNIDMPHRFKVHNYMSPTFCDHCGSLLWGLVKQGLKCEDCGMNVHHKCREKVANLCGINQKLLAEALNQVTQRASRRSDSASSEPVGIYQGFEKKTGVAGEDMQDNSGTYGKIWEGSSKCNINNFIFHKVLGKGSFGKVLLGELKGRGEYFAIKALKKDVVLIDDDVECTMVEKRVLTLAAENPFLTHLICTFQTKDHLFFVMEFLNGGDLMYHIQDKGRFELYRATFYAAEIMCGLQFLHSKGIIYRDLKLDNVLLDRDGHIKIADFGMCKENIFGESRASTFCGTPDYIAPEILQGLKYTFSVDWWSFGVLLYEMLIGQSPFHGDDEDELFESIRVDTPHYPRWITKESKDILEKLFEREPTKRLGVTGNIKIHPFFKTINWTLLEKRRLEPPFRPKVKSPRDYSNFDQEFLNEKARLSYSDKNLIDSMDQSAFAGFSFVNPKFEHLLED
# [8] = target: Protein kinase C beta type (Homo sapiens, UniProt P05771); experiment: Inhibition of [3H]PDBu binding to PKC beta C1A peptide
# Protein kinase C beta type, sequence (P05771 whole entry): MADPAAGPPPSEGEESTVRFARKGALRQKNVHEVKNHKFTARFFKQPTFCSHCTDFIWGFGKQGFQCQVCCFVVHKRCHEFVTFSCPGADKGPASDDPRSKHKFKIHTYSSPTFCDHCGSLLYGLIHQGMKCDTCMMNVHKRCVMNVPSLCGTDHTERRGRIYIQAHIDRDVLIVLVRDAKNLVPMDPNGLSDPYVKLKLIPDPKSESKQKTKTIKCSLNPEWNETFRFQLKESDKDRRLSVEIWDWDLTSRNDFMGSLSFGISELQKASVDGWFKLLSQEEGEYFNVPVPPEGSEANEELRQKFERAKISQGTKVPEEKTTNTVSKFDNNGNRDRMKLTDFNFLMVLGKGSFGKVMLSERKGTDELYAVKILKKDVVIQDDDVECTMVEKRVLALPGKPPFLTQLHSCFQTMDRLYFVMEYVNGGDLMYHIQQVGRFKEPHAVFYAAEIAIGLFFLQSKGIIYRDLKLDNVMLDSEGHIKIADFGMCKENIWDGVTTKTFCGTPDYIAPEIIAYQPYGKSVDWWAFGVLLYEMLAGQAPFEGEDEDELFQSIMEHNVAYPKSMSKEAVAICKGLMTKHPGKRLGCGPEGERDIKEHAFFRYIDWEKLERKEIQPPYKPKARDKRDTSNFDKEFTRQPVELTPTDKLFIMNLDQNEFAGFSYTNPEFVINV
# [9] = target: T2, Protein kinase C delta type; experiment: Inhibition of [3H]PDBu binding to PKC delta C1A peptide
# [10] = Cytotoxicity against human Raji cells assessed as viability at 1 uM; assay type: cell-based; settings: read-out: Activity
# [11] = Cytotoxicity against human Raji cells assessed as viability at 1 uM in presence of TPA; assay type: cell-based; settings: read-out: Activity
# [12] = Cytotoxicity against human RXF631L cells; assay type: functional; settings: RXF 631
# St-4 = experiment: Cytotoxicity against human St-4 cells; assay type: functional
# OVCAR-8 = experiment: Cytotoxicity against human OVCAR8 cells; assay type: functional
# SNB-78 = experiment: Cytotoxicity against human SNB78 cells; assay type: functional
# [13] = target: Protein kinase C gamma type (Homo sapiens, UniProt P05129); experiment: Inhibition of [3H]PDBu binding to PKC gamma C1A peptide
# NCI-H226 = experiment: Cytotoxicity against human NCI-H226 cells; assay type: functional
# A549 = experiment: Cytotoxicity against human A549 cells; assay type: functional
# MKN-45 = experiment: Cytotoxicity against human MKN45 cells; assay type: functional
# SK-OV-3 = experiment: Cytotoxicity against human SKOV3 cells; assay type: functional
# [14] = Cytotoxicity against human Raji cells assessed as viability at 10^-7 M; assay type: cell-based; settings: read-out: Activity
# MKN-28 = experiment: Cytotoxicity against human MKN28 cells; assay type: functional
# MDA-MB-231 = experiment: Cytotoxicity against human MDA-MB-231 cells; assay type: functional
# [15] = target: Protein kinase C alpha type (Homo sapiens, UniProt P17252); experiment: Inhibition of [3H]PDBu binding to PKC alpha C1A peptide
# [16] = target: Protein kinase C eta type (Homo sapiens, UniProt P24723); experiment: Inhibition of [3H]PDBu binding to PKCeta C1B peptide
# Protein kinase C eta type, sequence (P24723 whole entry): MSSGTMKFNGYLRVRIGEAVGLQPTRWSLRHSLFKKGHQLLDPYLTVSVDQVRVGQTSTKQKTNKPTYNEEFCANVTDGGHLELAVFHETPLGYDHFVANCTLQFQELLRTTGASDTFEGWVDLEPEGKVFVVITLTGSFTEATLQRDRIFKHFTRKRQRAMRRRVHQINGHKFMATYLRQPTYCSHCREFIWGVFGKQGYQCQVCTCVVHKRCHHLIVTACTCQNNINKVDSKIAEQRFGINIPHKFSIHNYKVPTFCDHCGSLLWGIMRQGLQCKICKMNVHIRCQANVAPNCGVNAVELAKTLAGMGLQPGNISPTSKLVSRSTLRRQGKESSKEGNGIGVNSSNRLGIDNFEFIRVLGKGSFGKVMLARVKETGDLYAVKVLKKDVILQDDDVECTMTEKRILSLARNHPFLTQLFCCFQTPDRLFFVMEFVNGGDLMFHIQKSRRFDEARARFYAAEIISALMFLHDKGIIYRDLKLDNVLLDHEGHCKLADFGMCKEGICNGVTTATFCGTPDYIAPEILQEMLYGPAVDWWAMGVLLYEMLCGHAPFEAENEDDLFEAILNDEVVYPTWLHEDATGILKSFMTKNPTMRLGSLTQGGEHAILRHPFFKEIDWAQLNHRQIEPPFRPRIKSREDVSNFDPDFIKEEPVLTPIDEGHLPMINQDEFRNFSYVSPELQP
# HCT-15 = experiment: Cytotoxicity against human HCT15 cells; assay type: functional
# ACHN = experiment: Cytotoxicity against human ACHN cells; assay type: functional
# Raji [17] = experiment: Inhibition of TPA-induced EBA-early antigen production in human Raji cells at 1 uM; assay type: cell-based; set-up: scale not given: the % may be the effect or the level left; settings: human gammaherpesvirus 4
# [18] = Cytotoxicity against human MKN1 cells; assay type: functional; settings: MKN-1
# NCI-H522 = experiment: Cytotoxicity against human NCI-H522 cells; assay type: functional
# HCC 2998 = experiment: Cytotoxicity against human HCC2998 cells; assay type: functional
# OVCAR-5 = experiment: Cytotoxicity against human OVCAR5 cells; assay type: functional
# OVCAR-4 = experiment: Cytotoxicity against human OVCAR4 cells; assay type: functional
# HCT-116 = experiment: Cytotoxicity against human HCT116 cells; assay type: functional
# U-251 = experiment: Cytotoxicity against human U251 cells; assay type: functional
# MKN-7 = experiment: Cytotoxicity against human MKN7 cells; assay type: functional
# SF-268 = experiment: Cytotoxicity against human SF268 cells; assay type: functional
# MKN-74 = experiment: Cytotoxicity against human MKN74 cells; assay type: functional
# [19] = Cytotoxicity against human HBC4 cells; assay type: functional
# Raji [20] = experiment: Induction of EBA-early antigen production in human Raji cells at 1 uM; assay type: cell-based; settings: human gammaherpesvirus 4
# SF-539 = experiment: Cytotoxicity against human SF539 cells; assay type: functional
# NCI-H23 = experiment: Cytotoxicity against human NCI-H23 cells; assay type: functional
# DU-145 = experiment: Cytotoxicity against human DU145 cells; assay type: functional
# PC-3 = experiment: Cytotoxicity against human PC3 cells; assay type: functional
# SF-295 = experiment: Cytotoxicity against human SF295 cells; assay type: functional
# DMS-114 = experiment: Cytotoxicity against human DMS114 cells; assay type: functional
smiles,measurement,setting,value
CC1(C)CC[C@@H]2CC(=O)O[C@@H](CO)CC(=O)O[C@@H]3C[C@@H](CCCCc4cccc(O)c4)O[C@@]1(C3)O2,GI50,HT-29,17 µM
same,GI50,DMS-273,12.6 µM
same,Activity,Raji [1],10.1%
same,GI50,[2],13.5 µM
same,GI50,MCF7,19.1 µM
same,Ki,[3],0.004 µM
same,GI50,KM12,13.8 µM
same,GI50,NCI-H460,2.51 µM
same,GI50,LOX IMVI,1.82 µM
same,Ki,[4],0.025 µM
same,GI50,SNB-75,15.8 µM
same,GI50,OVCAR-3,16.6 µM
same,viability at 0.1 µM,[5],60%
same,Activity,Raji [6],9.4%
same,Ki,[7],0.0074 µM
same,Ki,[8],0.089 µM
same,Ki,[9],0.14 µM
same,viability at 1 µM,[10],60%
same,viability at 1 µM,[11],60%
same,GI50,[12],16.2 µM
same,GI50,St-4,2.82 µM
same,GI50,OVCAR-8,19.5 µM
same,GI50,SNB-78,19.1 µM
same,Ki,[13],0.039 µM
same,GI50,NCI-H226,15.5 µM
same,GI50,A549,4.79 µM
same,GI50,MKN-45,4.68 µM
same,GI50,SK-OV-3,20.4 µM
same,viability at 0.1 µM,[14],60%
same,GI50,MKN-28,18.2 µM
same,GI50,MDA-MB-231,2.45 µM
same,Ki,[15],0.063 µM
same,Ki,[16],0.0044 µM
same,GI50,HCT-15,17.4 µM
same,GI50,ACHN,12 µM
same,Activity,Raji [17],7.5%
same,GI50,[18],13.8 µM
same,GI50,NCI-H522,13.5 µM
same,GI50,HCC 2998,3.72 µM
same,GI50,OVCAR-5,11.2 µM
same,GI50,OVCAR-4,17.8 µM
same,GI50,HCT-116,16.2 µM
same,GI50,U-251,14.8 µM
same,GI50,MKN-7,16.6 µM
same,GI50,SF-268,14.8 µM
same,GI50,MKN-74,17.4 µM
same,GI50,[19],0.468 µM
same,Activity,Raji [20],10.4%
same,GI50,SF-539,10.7 µM
same,GI50,NCI-H23,13.2 µM
same,GI50,DU-145,14.1 µM
same,GI50,PC-3,11 µM
same,GI50,SF-295,8.71 µM
same,GI50,DMS-114,16.2 µM
CC1(C)CC[C@@H]2CC(=O)O[C@@H](CO)CC(=O)O[C@@H]3C[C@@H](CCCCc4ccccc4)O[C@@]1(C3)O2,GI50,HT-29,11.2 µM
same,GI50,DMS-273,10.5 µM
same,Activity,Raji [1],15.2%
same,GI50,[2],6.76 µM
same,GI50,MCF7,16.2 µM
same,Ki,[3],0.0081 µM
same,GI50,NCI-H460,1.48 µM
same,GI50,LOX IMVI,6.76 µM
same,Ki,[4],0.037 µM
same,GI50,SNB-75,12 µM
same,GI50,OVCAR-3,13.5 µM
same,viability at 0.1 µM,[5],60%
same,Activity,Raji [6],9.7%
same,Ki,[7],0.0098 µM
same,Ki,[8],0.14 µM
same,Ki,[9],0.13 µM
same,viability at 1 µM,[10],60%
same,viability at 1 µM,[11],60%
same,GI50,[12],13.8 µM
same,GI50,St-4,0.891 µM
same,GI50,OVCAR-8,17.8 µM
same,GI50,SNB-78,15.8 µM
same,Ki,[13],0.08 µM
same,GI50,NCI-H226,11.5 µM
same,GI50,A549,3.24 µM
same,GI50,MKN-45,0.813 µM
same,GI50,SK-OV-3,17 µM
same,viability at 0.1 µM,[14],60%
same,GI50,MKN-28,16.6 µM
same,GI50,MDA-MB-231,2.14 µM
same,Ki,[15],0.12 µM
same,Ki,[16],0.012 µM
same,GI50,HCT-15,16.6 µM
same,GI50,ACHN,10 µM
same,Activity,Raji [17],13.1%
same,GI50,[18],12.6 µM
same,GI50,NCI-H522,13.2 µM
same,GI50,HCC 2998,2.95 µM
same,GI50,OVCAR-5,11 µM
same,GI50,OVCAR-4,15.1 µM
same,GI50,HCT-116,12.3 µM
same,GI50,U-251,12.3 µM
same,GI50,MKN-7,11.5 µM
same,GI50,SF-268,12.9 µM
same,GI50,MKN-74,14.8 µM
same,GI50,[19],0.525 µM
same,Activity,Raji [20],10.5%
same,GI50,SF-539,10.5 µM
same,GI50,NCI-H23,11.2 µM
same,GI50,DU-145,12 µM
same,GI50,PC-3,5.5 µM
same,GI50,SF-295,7.24 µM
same,GI50,DMS-114,14.1 µM
CCC/C=C/C=C/C(=O)O[C@H]1/C(=C/C(=O)OC)C[C@H]2C[C@H]([C@@H](C)O)OC(=O)C[C@H](O)C[C@@H]3C[C@H](OC(C)=O)C(C)(C)[C@](O)(C[C@@H]4C/C(=C/C(=O)OC)C[C@H](/C=C/C(C)(C)[C@]1(O)O2)O4)O3 [BRYOSTATIN 1],Activity,Raji [1],6.8%
same,GI50,NCI-H460,2.51 µM
same,viability at 0.1 µM,[5],60%
same,Activity,Raji [6],1.4%
same,viability at 1 µM,[10],40%
same,viability at 1 µM,[11],40%
same,GI50,A549,6.31 µM
same,viability at 0.1 µM,[14],60%
same,GI50,MDA-MB-231,6.31 µM
same,Activity,Raji [17],5%
same,GI50,HCC 2998,5.01 µM
same,Activity,Raji [20],2%
same,GI50,PC-3,5.01 µM
same,GI50,SF-295,6.31 µM
